{"source": "patent US9617212B2", "about": "“Isoindolin-1-ones as macrophage migration inhibitory factor (MIF) inhibitors” (Controlled Chemicals, Inc., priority 2013, dated 2017)", "data": [{"target": "T1, Human MIF (MIF tautomerase) (Homo sapiens, UniProt P14174)", "T1 construct": "purchased ProSpec", "T1 sequence (P14174 2-115 limits assumed)": "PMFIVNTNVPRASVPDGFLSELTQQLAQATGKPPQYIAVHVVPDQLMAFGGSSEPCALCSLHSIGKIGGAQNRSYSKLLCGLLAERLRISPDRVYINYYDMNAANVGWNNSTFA", "assay": "MIF Tautomerase Inhibitory Assay with L-Dopachrome Methyl Ester", "type": "biochemical", "settings": "relative potency class, MIF tautomerase inhibition; L-dopachrome methyl ester substrate, pH 7.34, no pre-incubation; read-out: IC50", "experimental": "MIF Tautomerase Inhibitory Assay with L-Dopachrome Methyl Ester\nAssay Method (pH 7.34, 0.017-0.033% DMSO, 0.034% EtOH): A fresh stock solution of L-dopachrome methyl ester in MeOH was prepared at 55-65 mM through oxidation of L-3,4-dihydroxyphenylalanine methyl ester hydrochloride with sodium periodate according to the procedure described in WO9729635A1. MeOH was removed from 0.5 mL of the L-dopachrome methyl ester/MeOH solution (55-65 mM) under a stream of argon and the residue taken up in appropriate amount of water to prepare a substrate solution (7-10 mM). Active Human MIF (from ProSpec) ([…]) was dissolved in 675 μL 0.1% bovine serum albumin (BSA) in water, and the resultant MIF solution (1 volume) mixed with 55 volumes of Na2HPO4 buffer (50 mM, pH 7.34) to form a 265 ng/mL MIF working solution. MIF working solution (280 μL) or a no-MIF working solution (prepared by mixing 0.1% BSA (1 volume) with the aforementioned Na2HPO4 buffer (55 volumes)) was transferred to wells in a column of 8 wells on a 96-well plate in a Plate Reader (SPECTRAmax Plus 384, Molecular Devices), and 5 μL of H2O/DMSO (99/1) containing no inhibitor or an inhibitor (whose concentration was verified by HPLC). Without pre-mixing or pre-incubation, 10 μL freshly prepared L-dopachrome methyl ester/H2O solution (7-10 mM) was added to each well with a multi-pipet. The assay samples were mixed immediately by sucking up and expelling the contents of the wells three times with a multi-pipet. The absorbance (A1) at 475 nm was then recorded for each sample every 2 s for 3 min. After 5-6 min, the samples were monitored again for 3 min with a reading every two seconds at 475 nm (A2). It can be shown that when [substrate]<<Km, plots of Ln(A1−A2) versus time are linear with slopes m (Eq 1). IC50 values were estimated from Eq 2-5, the inhibitor concentration [I] in the assay mixture and values of m in the presence (mi), absence (mo) of the inhibitor, the value of m observed for the non-MIF blank (mn), the MIF concentration (e), and the specificity constant for the MIF catalyzed reaction (kcat/Km). Ln(A1−A2)=−mt (Eq 1) F=(mi−mn)/(mo−mn) (Eq 2) Wherein mo−mn=ekcat/Km (Eq 3) and mi−mn=(ekcat/Km)[…] (Eq 4) IC50=[I]F/(1−F) (Eq 5)\nThe compounds listed in Table 1, provided herein, were prepared via procedures identical or similar to those described in the Examples 1-85. The listed compounds were >95% pure by HPLC. Each listed compound yielded a mass spectrum consistent with its structure. Concentrations of MIF tautomerase inhibitors used in the assay were verified by HPLC and the extinction coefficients of the inhibitors. The designated relative potency of MIF tautomerase inhibitors is based on the IC50 as determined by the method described in Biochemical Assay as follows: A, IC50<1 μM; B, 1 μM≦IC50<5 μM; C, 5 μM≦IC50<10 μM; D, 10 μM≦IC50<50 μM; E, 50 μM≦IC50<200 μM.", "units": {"IC50": "nM"}, "values": [{"molecule": "CC(NCC(=O)O)[C@H]1CC[C@H](CN2Cc3ccc(O)c(F)c3C2=O)CC1", "note": "(stereo partly drawn)", "IC50": "< 1000"}, {"molecule": "O=C1c2c(ccc(O)c2F)CN1C[C@H]1CC[C@H](COc2cccc(F)c2)CC1", "IC50": "< 1000"}, {"molecule": "CC(C)[C@@H](CO)NC(C)[C@H]1CC[C@H](CN2Cc3ccc(O)cc3C2=O)CC1", "note": "(stereo partly drawn) [drawing 110]", "IC50": "< 1000"}, {"molecule": "COC(=O)[C@@H](C)NC(C)C1CCC(CN2Cc3ccc(O)c(F)c3C2=O)CC1", "note": "(stereo partly drawn) [drawing 113]", "IC50": "< 1000"}, {"molecule": "CC(OC(=O)c1ccccc1)[C@H]1CC[C@H](CN2Cc3ccc(O)c(F)c3C2=O)CC1", "note": "(stereo partly drawn)", "IC50": "< 1000"}, {"molecule": "CC(N)[C@H]1CC[C@H](CN2Cc3ccc(O)cc3C2=O)CC1", "note": "(stereo partly drawn)", "IC50": "1000 to 5000"}, {"molecule": "CC(NCCC(=O)O)C1CCC(CN2Cc3ccc(O)c(F)c3C2=O)CC1", "note": "(stereo not drawn)", "IC50": "< 1000"}, {"molecule": "CCCNC(C)[C@H]1CC[C@H](CN2Cc3ccc(O)cc3C2=O)CC1", "note": "(stereo partly drawn)", "IC50": "1000 to 5000"}, {"molecule": "CC(=O)N[C@@H](COc1cccc(OC(C)[C@H]2CC[C@H](CN3Cc4ccc(O)c(F)c4C3=O)CC2)c1)C(=O)O", "note": "(stereo partly drawn)", "IC50": "< 1000"}, {"molecule": "O=C1c2cc(O)ccc2CN1CC1CCC(O)CC1", "note": "(stereo not drawn)", "IC50": "1000 to 5000"}, {"molecule": "CC(C)(O)[C@H]1CC[C@H](CN2Cc3ccc(O)c(F)c3C2=O)CC1", "IC50": "< 1000"}, {"molecule": "CC(CC1CCCCC1)N1Cc2ccc(O)cc2C1=O", "note": "(stereo not drawn)", "IC50": "10000 to 50000"}, {"molecule": "CCC(Oc1cccc(OC(F)(F)F)c1)C1CCC(CN2Cc3ccc(O)c(F)c3C2=O)CC1", "note": "(stereo not drawn)", "IC50": "< 1000"}, {"molecule": "CC(N[C@@H](C)C(=O)O)C1CCC(CN2Cc3ccc(O)c(F)c3C2=O)CC1", "note": "(stereo partly drawn)", "IC50": "< 1000"}, {"molecule": "CC(Oc1cccc(F)c1)[C@H]1CC[C@H](CN2Cc3cc(F)c(O)cc3C2=O)CC1", "note": "(mixture of isomers) [drawing 63]", "IC50": "< 1000"}, {"molecule": "COC(=O)[C@@H](CO)NC(C)C1CCC(CN2Cc3ccc(O)c(F)c3C2=O)CC1", "note": "(stereo partly drawn)", "IC50": "< 1000"}, {"molecule": "CNCCOc1cccc(OC[C@H]2CC[C@H](CN3Cc4ccc(O)c(F)c4C3=O)CC2)c1", "IC50": "< 1000"}, {"molecule": "O=C1c2cc(O)ccc2CN1C[C@H]1CC[C@H](C(=O)N2CCOCC2)CC1", "IC50": "1000 to 5000"}, {"molecule": "COC(=O)[C@H](C)NC(C)[C@H]1CC[C@H](CN2Cc3ccc(O)c(F)c3C2=O)CC1", "note": "(single isomer, unassigned)", "IC50": "< 1000"}, {"molecule": "CCCC(Oc1cccc(F)c1)[C@H]1CC[C@H](CN2Cc3ccc(O)cc3C2=O)CC1", "note": "(stereo partly drawn)", "IC50": "< 1000"}, {"molecule": "COC(=O)CCN1Cc2ccc(O)cc2C1=O", "IC50": "5000 to 10000"}, {"molecule": "COC(=O)CCNC(C)C1CCC(CN2Cc3ccc(O)c(F)c3C2=O)CC1", "note": "(stereo not drawn)", "IC50": "< 1000"}, {"molecule": "CC(C)[C@@H](CO)NC(C)[C@H]1CC[C@H](CN2Cc3ccc(O)cc3C2=O)CC1", "note": "(stereo partly drawn) [drawing 150]", "IC50": "1000 to 5000"}, {"molecule": "COC(=O)[C@H](NC(C)[C@H]1CC[C@H](CN2Cc3ccc(O)c(F)c3C2=O)CC1)C(C)C", "note": "(single isomer, unassigned)", "IC50": "< 1000"}, {"molecule": "C[C@@H](O)[C@H]1CC[C@H](CN2Cc3ccc(O)c(F)c3C2=O)CC1", "IC50": "< 1000"}, {"molecule": "CNC(=O)[C@H]1CC[C@H](CN2Cc3ccc(O)cc3C2=O)CC1", "IC50": "1000 to 5000"}, {"molecule": "O=C1OCc2cc(OC[C@H]3CC[C@H](CN4Cc5ccc(O)cc5C4=O)CC3)ccc21", "IC50": "1000 to 5000"}, {"molecule": "O=C1c2cc(O)ccc2CN1C[C@H]1CC[C@H](C(O)CCC2CCCCC2)CC1", "note": "(stereo partly drawn)", "IC50": "< 1000"}, {"molecule": "CC([C@H]1CC[C@H](CN2Cc3ccc(O)cc3C2=O)CC1)N1CCOCC1", "note": "(stereo partly drawn)", "IC50": "< 1000"}, {"molecule": "O=C1c2cc(O)ccc2CN1[C@@H](CO)C1CCCCC1", "IC50": "10000 to 50000"}, {"molecule": "CC1CCC(N2Cc3ccc(O)cc3C2=O)CC1", "note": "(stereo not drawn)", "IC50": "1000 to 5000"}, {"molecule": "C[C@@H](OC(=O)CCC(=O)O)[C@H]1CC[C@H](CN2Cc3ccc(O)c(F)c3C2=O)CC1", "note": "(single isomer, unassigned)", "IC50": "< 1000"}, {"molecule": "CNCCOc1cccc(OC(C)[C@H]2CC[C@H](CN3Cc4ccc(O)c(F)c4C3=O)CC2)c1", "note": "(stereo partly drawn)", "IC50": "< 1000"}, {"molecule": "O=C(OC1CCCC1)C1CCC(CCN2Cc3ccc(O)cc3C2=O)CC1", "note": "(stereo not drawn) [drawing 139]", "IC50": "1000 to 5000"}, {"molecule": "CCOC(CCC1CCCCC1)[C@H]1CC[C@H](CN2Cc3ccc(O)cc3C2=O)CC1", "note": "(stereo partly drawn)", "IC50": "< 1000"}, {"molecule": "O=C1c2cc(O)ccc2CN1C1CCCCCC1", "IC50": "5000 to 10000"}, {"molecule": "O=C1c2cc(O)ccc2CN1CCc1cccc(F)c1", "IC50": "5000 to 10000"}, {"molecule": "O=C1c2cc(O)ccc2CN1C[C@H]1CC[C@H](COc2cccc(O)c2)CC1", "IC50": "< 1000"}, {"molecule": "CC(Oc1cccc(F)c1)[C@H]1CC[C@H](CN2Cc3ccc(O)c(F)c3C2=O)CC1", "note": "(stereo partly drawn)", "IC50": "< 1000"}]}]}
